Experimental data as given in patent US12662481B2, “Substituted 2-morpholinopyridine derivatives as ATR kinase inhibitors” (Repare Therapeutics Inc., priority 2019, dated 2026).
Read-outs that look alike come from different tables or passages of the source.

Assays:
ATR/ATRIP = ATR/ATRIP (Homo sapiens, UniProt Q13535); experiment: ATR/ATRIP enzymatic assay (AlphaScreen, phosphorylation of p53)
Description: Detection of ATR kinase activity utilized the AlphaScreen system to measure the phosphorylation of the substrate protein p53. […] Plates were incubated at room temperature in the dark for 4 hours and read on a BMG Polarstar using AlphaScreen dedicated filters. […] IC50 values were determined using a 4-parameter fit algorithm.

[1] = system: ATR (CHK1 phosphorylation at Ser345 in HeLa S3 cells); experiment: ATR assay in HeLa S3 cells (CHK1 p-Ser345 AlphaScreen SureFire, gemcitabine); assay type: cell-based; details: HeLa S3 whole cell assay, 3.5 to 4 hours
Description: Media was then replaced by 20 μL per well Opti-MEM no phenol red and 5 μL of serial diluted compounds were added to the assay plate for a final DMSO concentration of 0.5%. […] The plate was incubated at 37° C., 5% CO2 for 3.5 to 4 hours.

[2] = Homo sapiens, gemcitabine 1.5 μM

Sequence of ATR/ATRIP (Q13535 whole entry): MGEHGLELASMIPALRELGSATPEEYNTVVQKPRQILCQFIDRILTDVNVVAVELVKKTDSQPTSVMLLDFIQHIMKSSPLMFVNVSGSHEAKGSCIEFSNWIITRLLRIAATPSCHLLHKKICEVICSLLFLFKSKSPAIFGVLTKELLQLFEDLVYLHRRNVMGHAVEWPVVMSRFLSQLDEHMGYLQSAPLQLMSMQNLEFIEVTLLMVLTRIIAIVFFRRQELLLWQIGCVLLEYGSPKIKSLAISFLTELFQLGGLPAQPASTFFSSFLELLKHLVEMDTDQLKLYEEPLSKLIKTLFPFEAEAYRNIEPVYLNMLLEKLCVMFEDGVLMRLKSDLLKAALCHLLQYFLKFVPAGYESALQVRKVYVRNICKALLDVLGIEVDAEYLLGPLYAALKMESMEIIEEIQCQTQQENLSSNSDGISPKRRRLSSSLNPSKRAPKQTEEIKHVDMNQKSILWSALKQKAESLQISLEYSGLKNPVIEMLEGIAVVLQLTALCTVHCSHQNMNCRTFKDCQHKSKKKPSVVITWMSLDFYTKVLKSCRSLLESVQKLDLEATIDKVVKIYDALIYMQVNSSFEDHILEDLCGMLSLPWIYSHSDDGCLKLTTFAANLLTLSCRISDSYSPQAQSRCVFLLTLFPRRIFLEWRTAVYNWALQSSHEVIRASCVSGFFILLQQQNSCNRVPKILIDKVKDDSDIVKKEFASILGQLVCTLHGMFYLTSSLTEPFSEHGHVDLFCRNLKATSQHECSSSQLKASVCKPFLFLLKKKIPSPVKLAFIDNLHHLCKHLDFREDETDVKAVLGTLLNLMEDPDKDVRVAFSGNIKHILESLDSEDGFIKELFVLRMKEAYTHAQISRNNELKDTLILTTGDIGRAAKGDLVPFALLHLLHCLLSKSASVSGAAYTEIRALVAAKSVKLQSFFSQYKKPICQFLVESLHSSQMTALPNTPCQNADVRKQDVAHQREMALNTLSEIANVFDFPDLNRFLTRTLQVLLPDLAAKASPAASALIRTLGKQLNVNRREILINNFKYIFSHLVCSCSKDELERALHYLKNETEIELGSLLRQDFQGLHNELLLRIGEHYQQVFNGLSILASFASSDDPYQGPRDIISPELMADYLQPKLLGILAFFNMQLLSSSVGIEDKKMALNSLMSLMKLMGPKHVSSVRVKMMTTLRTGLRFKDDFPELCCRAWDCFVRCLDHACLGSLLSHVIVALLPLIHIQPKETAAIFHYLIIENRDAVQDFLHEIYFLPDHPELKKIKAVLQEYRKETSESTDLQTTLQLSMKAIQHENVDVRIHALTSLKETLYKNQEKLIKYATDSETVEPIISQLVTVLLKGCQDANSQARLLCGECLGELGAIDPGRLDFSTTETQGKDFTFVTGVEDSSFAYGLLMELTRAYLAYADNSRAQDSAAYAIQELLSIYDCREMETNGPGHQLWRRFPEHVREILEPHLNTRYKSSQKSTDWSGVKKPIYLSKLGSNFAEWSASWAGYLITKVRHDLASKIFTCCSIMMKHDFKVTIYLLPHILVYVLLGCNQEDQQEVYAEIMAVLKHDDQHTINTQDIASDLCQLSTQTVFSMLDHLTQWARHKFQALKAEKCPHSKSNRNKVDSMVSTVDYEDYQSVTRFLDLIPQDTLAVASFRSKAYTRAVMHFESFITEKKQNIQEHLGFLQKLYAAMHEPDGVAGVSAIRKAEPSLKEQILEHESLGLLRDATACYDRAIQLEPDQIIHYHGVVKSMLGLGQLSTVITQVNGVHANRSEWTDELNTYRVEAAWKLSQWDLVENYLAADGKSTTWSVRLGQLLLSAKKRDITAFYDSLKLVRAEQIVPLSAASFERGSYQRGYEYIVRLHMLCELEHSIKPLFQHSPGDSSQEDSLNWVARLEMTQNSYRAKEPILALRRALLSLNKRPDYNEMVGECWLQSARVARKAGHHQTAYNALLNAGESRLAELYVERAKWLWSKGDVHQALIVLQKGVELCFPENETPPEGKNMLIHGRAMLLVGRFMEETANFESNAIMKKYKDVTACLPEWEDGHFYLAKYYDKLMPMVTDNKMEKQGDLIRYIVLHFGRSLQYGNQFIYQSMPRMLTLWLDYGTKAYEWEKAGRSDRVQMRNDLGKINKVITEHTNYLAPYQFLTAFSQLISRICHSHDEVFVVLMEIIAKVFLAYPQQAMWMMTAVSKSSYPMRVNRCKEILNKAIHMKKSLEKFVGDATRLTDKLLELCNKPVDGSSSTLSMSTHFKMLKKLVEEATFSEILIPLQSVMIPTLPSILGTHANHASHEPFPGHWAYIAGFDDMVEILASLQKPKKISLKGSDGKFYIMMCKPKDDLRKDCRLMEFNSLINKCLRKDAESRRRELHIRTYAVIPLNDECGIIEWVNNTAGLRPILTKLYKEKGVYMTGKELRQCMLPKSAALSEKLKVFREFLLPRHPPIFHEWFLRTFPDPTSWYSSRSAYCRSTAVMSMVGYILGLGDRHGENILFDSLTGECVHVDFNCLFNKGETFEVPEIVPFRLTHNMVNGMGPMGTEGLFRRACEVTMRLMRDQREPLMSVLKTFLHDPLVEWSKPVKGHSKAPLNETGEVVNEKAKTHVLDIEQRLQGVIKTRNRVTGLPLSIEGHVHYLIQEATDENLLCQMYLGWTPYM
Sequence of ATR/ATRIP (Q8WXE1 whole entry partner): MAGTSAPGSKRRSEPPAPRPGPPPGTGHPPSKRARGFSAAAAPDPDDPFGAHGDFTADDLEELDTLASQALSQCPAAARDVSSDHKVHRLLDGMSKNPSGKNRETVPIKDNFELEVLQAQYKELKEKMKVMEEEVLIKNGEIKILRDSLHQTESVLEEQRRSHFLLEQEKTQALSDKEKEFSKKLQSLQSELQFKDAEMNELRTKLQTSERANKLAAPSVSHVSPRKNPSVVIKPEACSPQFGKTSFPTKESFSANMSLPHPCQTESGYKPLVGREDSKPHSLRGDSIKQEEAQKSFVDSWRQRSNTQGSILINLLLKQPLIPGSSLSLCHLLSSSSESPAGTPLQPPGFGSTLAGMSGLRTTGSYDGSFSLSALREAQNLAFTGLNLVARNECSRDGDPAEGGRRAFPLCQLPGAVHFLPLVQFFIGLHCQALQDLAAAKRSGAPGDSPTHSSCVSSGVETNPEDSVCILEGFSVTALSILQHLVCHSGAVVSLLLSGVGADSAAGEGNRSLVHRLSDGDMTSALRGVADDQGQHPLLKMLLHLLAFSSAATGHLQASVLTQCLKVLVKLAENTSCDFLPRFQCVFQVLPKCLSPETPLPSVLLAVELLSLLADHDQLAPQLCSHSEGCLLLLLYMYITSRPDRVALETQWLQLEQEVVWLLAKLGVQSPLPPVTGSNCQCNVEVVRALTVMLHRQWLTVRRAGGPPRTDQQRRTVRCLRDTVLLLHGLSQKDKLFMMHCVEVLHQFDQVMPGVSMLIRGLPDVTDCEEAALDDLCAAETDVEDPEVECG

IC50 [1, 2] [nM] | SMILES | further results
 | Cc1ccncc1-c1cc(N2CCOC[C@H]2C)nc2c1ccn2-c1cc[nH]n1 [Compound 9] | IC50 (ATR/ATRIP): 371 nM
 | C[C@@H]1COCCN1c1cc(-c2nncs2)c2cnn(-c3cc[nH]n3)c2n1 [Compound 33] | IC50 (ATR/ATRIP): 154 nM
 | CC(C#N)c1cc(N2CCOC[C@H]2C)nc2c1cnn2-c1cc[nH]n1 (some centres unmarked) [Compound 47] | IC50 (ATR/ATRIP; read-out: ATR IC50, recombinant ATR/ATRIP 0.63 nM, 25 nM GST-p53, 3 μM ATP, 1 hour room temperature): 12 nM
0.9 | C[C@@H]1COCCN1c1cc([C@]2(O)C[C@H]3CC[C@@H](C2)O3)c2cnn(-c3cc[nH]n3)c2n1 [Compound 121] | 
17 | C[C@@H]1COCCN1c1cc(-c2ccccc2S(N)(=O)=O)c2cnn(-c3cc[nH]n3)c2n1 [Compound 126, (R)-2-(6-(3-methylmorpholino)-1-(1H-pyrazol-3-yl)-1H-pyrazolo[3,4-b]pyridin-4-yl)benzenesulfonamide] | 
41 | C[C@@H]1COCCN1c1cc(N2CCOCC2=O)c2cnn(-c3cc[nH]n3)c2n1 [Compound 134] | 
0.8 | COC1(c2cc(N3CCOC[C@H]3C)nc3c2cnn3-c2cc[nH]n2)CCSCC1 [Compound 147] | 
 | C[C@@H]1COCCN1c1cc(-c2cccnc2C(F)(F)F)c2c(=O)[nH]n(-c3ccn[nH]3)c2n1 [Compound 151] | IC50 ([1]; gemcitabine […]): 9.1 nM
